Test results from patent publication US10874640B2 (GILEAD SCIENCES, INC., priority 2016, dated 2020).

Experiments:
[1] = Hepatic Stability Assay; format: in vitro ADME; parameters: dose or concentration left out as unconfirmed; settings: pooled cryopreserved hepatocytes; read-out: t½
Procedure: The metabolic stability of certain compounds disclosed herein was assessed in vitro in pooled cryopreserved hepatocytes using the in vitro half-life method. Incubations were at 37° C. and final concentrations in the incubations were 1×10^6 cells/mL and […] test concentration of the compound. Aliquots were sequentially removed after 0, 1, 3 and 6 hours and analyzed by LC-MS/MS. In vitro half-life was determined by measuring the rate of disappearance of the compound and then scaled to predicted hepatic clearance using the well-stirred model. […] As such, compounds having a value of 39.5 may have a half live that exceeds 39.5 hours.

[2] = system: HBV AD38 viral particles in HepG2 cell line overexpressing NTCP; assay: HBV DNA Quantification Assay; format: cell-based; settings: Hepatitis B virus, HepG2, 120 h, HBV AD38-infected HepG2-NTCP cells, 5 days incubation, HBV DNA in culture supernatant (QuantiGene 2.0); geometric mean of a minimum of four determinations
Procedure: A HepG2 cell line overexpressing the HBV virus attachment receptor sodium-taurocholate cotransporting polypeptide (NTCP) was grown to confluency in DMEM growth medium, Dulbecco's Modified Eagle Medium without sodium pyruvate (Life Technologies, Rockville, Md.) supplemented with 10% FBS (Thermo Scientific, Waltham, Md.), 1% penicillin/streptomycin (Life Technologies, Rockville, Md.) and 2 mM L-glutamine (Life Technologies, Rockville, Md.) in T175 flasks. Cells were infected with HBV AD38 viral particles (Texcell, Frederick, USA) at 4000 genome equivalents per cell. […] The assay plates were incubated for a period of 5 days and the antiviral activity of the test compounds were assayed by detecting the presence of HBV DNA in the culture supernatant using the QuantiGene™ 2.0 nucleic acid quantification kit (Affymetrix, Santa Clara, Calif.).
The culture supernatant was harvested and treated with lysis buffer containing Proteinase K (Affymetrix, Santa Clara, Calif.). […] After the final wash step, the alkaline phosphatase substrate (Luminol APS5) was added and the resulting luminescence signal was read in an EnVision Multilabel Plate Reader (PerkinElmer, Santa Clara, Calif.). […]

Row | SMILES | half-life [1] [h] | EC50 [2] [nM]
1 | CNC(=O)C1(NC(=O)C(=O)c2c(C)c(C(=O)Nc3ccc(F)c(F)c3)n3c2C[C@@H](F)C3)CC(F)(F)C1 [Example 49, (R)-7-(2-((3,3-difluoro-1-(methylcarbamoyl)cyclobutyl)amino)-2-oxoacetyl)-N-(3,4-difluorophenyl)-2-fluoro-6-methyl-2,3-dihydro-1H-pyrrolizine-5-carboxamide] | ≥ 39.5 | 
2 | Cc1c(C(=O)C(=O)NC2(c3c[nH]nn3)CC2)c2n(c1C(=O)Nc1ccnc(C(F)F)c1)[C@@H]1C[C@@H]1C2 [Example 56, (1aR,6aR)-5-(2-((1-(1H-1,2,3-triazol-4-yl)cyclopropyl)amino)-2-oxoacetyl)-N-(2-(difluoromethyl)pyridin-4-yl)-4-methyl-1,1a,6,6a-tetrahydrocyclopropa[b]pyrrolizine-3-carboxamide] | ≥ 39.5 | 
3 | CNC(=O)C1(NC(=O)C(=O)c2c(C)c(C(=O)Nc3ccc(F)cc3)n3c2CCC3)CC(F)(F)C1 [Example 47, 7-(2-((3,3-difluoro-1-(methylcarbamoyl)cyclobutyl)amino)-2-oxoacetyl)-N-(4-fluorophenyl)-6-methyl-2,3-dihydro-1H-pyrrolizine-5-carboxamide] | ≥ 39.5 | 
4 | Cc1c(C(=O)C(=O)NC2(c3c[nH]nn3)CC2)c2n(c1C(=O)Nc1ccc(F)cc1)CCC2 [Example 70, 7-(2-((1-(1H-1,2,3-triazol-4-yl)cyclopropyl)amino)-2-oxoacetyl)-N-(4-fluorophenyl)-6-methyl-2,3-dihydro-1H-pyrrolizine-5-carboxamide] | ≥ 39.5 | 
5 | CNC(=O)C1(NC(=O)C(=O)c2c(C)c(C(=O)Nc3ccc(F)c(C#N)c3)n3c2CCC3)CC(F)(F)C1 [Example 35, N-(3-cyano-4-fluorophenyl)-7-(2-((3,3-difluoro-1-(methylcarbamoyl)cyclobutyl)amino)-2-oxoacetyl)-6-methyl-2,3-dihydro-1H-pyrrolizine-5-carboxamide] | ≥ 39.5 | 
6 | CNC(=O)C1(NC(=O)C(=O)c2c(C)c(C(=O)Nc3ccc(F)c(F)c3)n3c2CCC3)CC(F)(F)C1 [Example 44, 7-(2-((3,3-difluoro-1-(methylcarbamoyl)cyclobutyl)amino)-2-oxoacetyl)-N-(3,4-difluorophenyl)-6-methyl-2,3-dihydro-1H-pyrrolizine-5-carboxamide] | ≥ 39.5 | 
7 | CNC(=O)C1(NC(=O)C(=O)c2c(C)c(C(=O)Nc3ccc(F)c(C(F)F)c3)n3c2CCC3)CC(F)(F)C1 [Example 116, 7-(2-((3,3-difluoro-1-(methylcarbamoyl)cyclobutyl)amino)-2-oxoacetyl)-N-(3-(difluoromethyl)-4-fluorophenyl)-6-methyl-2,3-dihydro-1H-pyrrolizine-5-carboxamide] | ≥ 39.5 | 
8 | Cc1c(C(=O)C(=O)NC2(c3c[nH]nn3)CC(F)(F)C2)c2n(c1C(=O)Nc1ccnc(C(F)F)c1F)[C@@H]1C[C@@H]1C2 [Example 80, (1aR,6aR)-5-(2-((3,3-difluoro-1-(1H-1,2,3-triazol-4-yl)cyclobutyl)amino)-2-oxoacetyl)-N-(2-(difluoromethyl)-3-fluoropyridin-4-yl)-4-methyl-1,1a,6,6a-tetrahydrocyclopropa[b]pyrrolizine-3-carboxamide] |  | 8.7
9 | Cc1c(C(=O)C(=O)NC2(C)CS(=O)(=O)C2)c2n(c1C(=O)Nc1ccc(F)c(C#N)c1)[C@@H]1C[C@@H]1C2 [Example 72, (1aR,6aR)—N-(3-cyano-4-fluorophenyl)-4-methyl-5-(2-((3-methyl-1,1-dioxidothietan-3-yl)amino)-2-oxoacetyl)-1,1a,6,6a-tetrahydrocyclopropa[b]pyrrolizine-3-carboxamide] | ≥ 39.5 | 
10 | Cc1c(C(=O)C(=O)N[C@](C)(C(N)=O)C(F)(F)F)c2n(c1C(=O)Nc1ccc(F)c(F)c1)CCC2 [Example 135] | ≥ 39.5 | 
11 | Cc1c(C(=O)C(=O)N[C@@](C)(C(N)=O)C(F)(F)F)c2n(c1C(=O)Nc1ccc(F)c(F)c1)CCC2 [Example 136] | ≥ 39.5 | 
12 | CNC(=O)C1(NC(=O)C(=O)c2c(C)c(C(=O)Nc3cccc(C(F)F)c3)n3c2CCC3)CC(F)(F)C1 [Example 115, 7-(2-((3,3-difluoro-1-(methylcarbamoyl)cyclobutyl)amino)-2-oxoacetyl)-N-(3-(difluoromethyl)phenyl)-6-methyl-2,3-dihydro-1H-pyrrolizine-5-carboxamide] | ≥ 39.5 | 
